Laboratory results published in US20050112573A1, “Method of detecting toxic substance” (priority 2001, published 2005).

System: yeast genes (level of expressed mRNA)
Experiment: DNA chip analysis of expressed mRNA of yeast genes after 2 h culture with a toxic chemical substance
Format: cell-based, Saccharomyces cerevisiae S288C
Conditions: for The level of expressed mRNA in the presence of chemical substance/ (ratio to absence of chemical substance): stress protein genes, DNA chip
Method: Yeast (Saccharomyces cerevtisiae S288C (α SUC2mal mel gap2 CUP1)) were cultured at 25° C. on YPD medium (yeast extract 1%, polypepton 2%, glucose 2%). One of toxic chemical substances was added to the cell at logarithmic growth phase, and the cell was further cultured for two hours. Cell was cultured without any chemical substance in the same condition, and was used as control. Concentrations of the chemical substances were defined to inhibit the growth of the yeast but not lead to death.
After the completion of cultivation, the culture was centrifuged to collect the cells. To the cells, sodium acetate buffer (50 mM sodium acetate, 10 mM EDTA, 1% SDS) was added, and the mixture was shaken at 65° C. for five minutes, followed by returning to room temperature, and obtaining the supernatant, which procedure was repeated two times. To the supernatant, ½ amount of a solution of phenol/chloroform was added, and the mixture was centrifuged to give a supernatant, which was added with an equal amount of chloroform, and the mixture was centrifuged to give a supernatant. To the supernatant, an equal amount of isopropanol containing 0.3 M sodium acetate was added, and the mixture was allowed to stand at room temperature for 30 minutes, after which the mixture was centrifuged to give a sediment of the whole RNAs. Seventy % ethanol was added to the sediment, and the mixture was again centrifuged to give a sediment, which was then dried and dissolved in water. mRNA was isolated from the whole RNAs as followings. In view of the fact that a poly A chain is attached to the 3′ terminus of mRNA, a polynucleotide having a poly T structure which was immobilized on the surface of latex beads was used to trap the mRNA, and then the mRNA was washed and eluted with spine column (Oligotex-dT30<Super>mRNA Purification Kit, Takara). Reverse transcription of the mRNA was conducted with a reverse transcriptase (Super Script II Reverse Transcriptase; catalogue No. 18064-014, GibcoBRL) using fluorescence-labeled nucleotides to give cDNAs that were introduced with Cy3-dUTP or Cy5-dUTP during the reverse transcription.
The labeled cDNAs were dissolved in TE buffer (10 mM Tris-HCl/1 mM EDTA, pH8.0), and the solution was dropped on the DNA chip containing the whole genes of yeast (DNA Chip Research Inc. Japan) so that the cDNAs were hybridized on the DNA chip at 65° C. for over 12 hours. The fluoresces intensity of the DNA chip was read with a scanner, and the ratio relative to the fluorescence intensity resulting from the absence of chemical substance was estimated as the following, which is shown in Tables 1 to 9: [formula]
In the Tables, “Intensity” indicated in the rightmost column is a value of the level of expressed mRNA of each gene in control cells as divided by the average level of the expressions of the whole genes.

In the case of `CCCCC[C@H](O)CC(=O)CCc1ccc(O)c(OC)c1` [(13), gingerol], the “The level of expressed mRNA in the presence of chemical substance/ in its absence, gene YDL078C” value (yeast gene YDL078C, ratio of DNA chip fluorescence intensity to that without chemical substance) is reported as 1.0, the “The level of expressed mRNA in the presence of chemical substance/ (in its absence), gene YDL215C” value (yeast gene YDL215C, ratio of DNA chip fluorescence intensity to that without chemical substance) is reported as 1.5 and the “The level of expressed mRNA in the presence of chemical substance/The level of expressed mRNA in the absence of chemical substance” value (yeast gene YDL238C) is reported as 2.0. The “The level of expressed mRNA in the presence of chemical substance/The level of expressed mRNA in the absence of chemical substance” value (yeast gene YDR055W) was 3.1, the “The level of expressed mRNA in the presence of chemical substance/ (in its absence), gene YDR073W” value (yeast gene YDR073W, ratio of DNA chip fluorescence intensity to that without chemical substance) was 0.6 and the “The level of expressed mRNA in the presence of chemical substance/ in its absence, gene YDR079W” value (yeast gene YDR079W, energy system protein genes, 2 h culture with the chemical, ratio to control without chemical) was 1.3. For the same compound, the “The level of expressed mRNA in the presence of chemical substance/ (ratio to absence), gene YDR079W” value (yeast gene YDR079W, mitochondria-located protein genes, 2 h culture with chemical) was 1.3, the “The level of expressed mRNA in the presence of chemical substance/The level of expressed mRNA in the absence of chemical substance” value (yeast gene YDR084C) was 1.0 and the “The level of expressed mRNA in the presence of chemical substance/The level of expressed mRNA in the absence of chemical substance” value (yeast gene YDR085C) was 1.1. The “The level of expressed mRNA in the presence of chemical substance/The level of expressed mRNA in the absence of chemical substance” value (yeast gene YDR104C) was 1.6, the “The level of expressed mRNA in the presence of chemical substance/The level of expressed mRNA in the absence of chemical substance” value (yeast gene YDR115W) was 1.1 and the “The level of expressed mRNA in the presence of chemical substance/The level of expressed mRNA in the absence of chemical substance” value (yeast gene YDR259C) was 2.0. For the same compound, the “The level of expressed mRNA in the presence of chemical substance/ (in its absence), gene YDR297W” value (yeast gene YDR297W, ratio of DNA chip fluorescence intensity to that without chemical substance) was 0.8, the “The level of expressed mRNA in the presence of chemical substance/The level of expressed mRNA in the absence of chemical substance” value (yeast gene YDR315C) was 1.6 and the “The level of expressed mRNA in the presence of chemical substance/The level of expressed mRNA in the absence of chemical substance” value (yeast gene YDR358W) was 3.2. For the same compound, the “The level of expressed mRNA in the presence of chemical substance/ (ratio to absence), gene YDR377W” value (yeast gene YDR377W, mitochondria-located protein genes, 2 h culture with chemical) was 0.7, the “The level of expressed mRNA in the presence of chemical substance/ (in its absence), gene YDR387C” value (yeast gene YDR387C, ratio of DNA chip fluorescence intensity to that without chemical substance) was 1.3 and the “The level of expressed mRNA in the presence of chemical substance/The level of expressed mRNA in the absence of chemical substance” value (yeast gene YDR388W) was 1.7. The “The level of expressed mRNA in the presence of chemical substance/The level of expressed mRNA in the absence of chemical substance” value (yeast gene YDR432W) was 1.4, the “The level of expressed mRNA in the presence of chemical substance/The level of expressed mRNA in the absence of chemical substance” value (yeast gene YDR481C) was 1.5 and the “The level of expressed mRNA in the presence of chemical substance/The level of expressed mRNA in the absence of chemical substance” value (yeast gene YDR510W) was 2.0. For the same compound, the “The level of expressed mRNA in the presence of chemical substance/ (ratio to absence of chemical substance)” value (yeast gene YEL039C) was 0.5, the “The level of expressed mRNA in the presence of chemical substance/The level of expressed mRNA in the absence of chemical substance” value (yeast gene YEL042W) was 0.4 and the “The level of expressed mRNA in the presence of chemical substance/The level of expressed mRNA in the absence of chemical substance” value (yeast gene YEL066W) was 1.6. For the same compound, the “The level of expressed mRNA in the presence of chemical substance/ (in its absence), gene YER015W” value (yeast gene YER015W, ratio of DNA chip fluorescence intensity to that without chemical substance) was 0.8, the “The level of expressed mRNA in the presence of chemical substance/The level of expressed mRNA in the absence of chemical substance” value (yeast gene YER039C) was 2.1 and the “The level of expressed mRNA in the presence of chemical substance/ (ratio to absence of chemical substance)” value (yeast gene YER057C) was 1.0. For the same compound, the “The level of expressed mRNA in the presence of chemical substance/The level of expressed mRNA in the absence of chemical substance” value (yeast gene YER107C) was 0.9, the “The level of expressed mRNA in the presence of chemical substance/The level of expressed mRNA in the absence of chemical substance” value (yeast gene YER130C) was 1.6 and the “The level of expressed mRNA in the presence of chemical substance/The level of expressed mRNA in the absence of chemical substance” value (yeast gene YFL028C) was 1.4. For the same compound, the “The level of expressed mRNA in the presence of chemical substance/The level of expressed mRNA in the absence of chemical substance” value (yeast gene YFL043C) was 1.5, the “The level of expressed mRNA in the presence of chemical substance/ (in its absence), gene YGL035C” value (yeast gene YGL035C, ratio of DNA chip fluorescence intensity to that without chemical substance) was 1.1 and the “The level of expressed mRNA in the presence of chemical substance/ (in its absence), gene YGL115W” value (yeast gene YGL115W, ratio of DNA chip fluorescence intensity to that without chemical substance) was 0.7. The “The level of expressed mRNA in the presence of chemical substance/ (ratio to absence of chemical substance)” value (yeast gene YGL115W) was 0.7, the “The level of expressed mRNA in the presence of chemical substance/The level of expressed mRNA in the absence of chemical substance” value (yeast gene YGL158W) was 1.0 and the “The level of expressed mRNA in the presence of chemical substance/ (ratio to absence), gene YGL187C” value (yeast gene YGL187C, mitochondria-located protein genes, 2 h culture with chemical) was 0.7. The “The level of expressed mRNA in the presence of chemical substance/ (in its absence), gene YGL205W” value (yeast gene YGL205W, ratio of DNA chip fluorescence intensity to that without chemical substance) was 1.0, the “The level of expressed mRNA in the presence of chemical substance/The level of expressed mRNA in the absence of chemical substance” value (yeast gene YGL229C) was 1.7 and the “The level of expressed mRNA in the presence of chemical substance/ in its absence, gene YGR062C” value (yeast gene YGR062C, energy system protein genes, 2 h culture with the chemical, ratio to control without chemical) was 1.5. The “The level of expressed mRNA in the presence of chemical substance/ (ratio to absence), gene YGR062C” value (yeast gene YGR062C, mitochondria-located protein genes, 2 h culture with chemical) was 1.5, the “The level of expressed mRNA in the presence of chemical substance/ (in its absence), gene YGR096W” value (yeast gene YGR096W, ratio of DNA chip fluorescence intensity to that without chemical substance) was 1.1 and the “The level of expressed mRNA in the presence of chemical substance/The level of expressed mRNA in the absence of chemical substance” value (yeast gene YGR136W) was 1.7. For the same compound, the “The level of expressed mRNA in the presence of chemical substance/The level of expressed mRNA in the absence of chemical substance” value (yeast gene YGR189C) was 1.2, the “The level of expressed mRNA in the presence of chemical substance/The level of expressed mRNA in the absence of chemical substance” value (yeast gene YGR213C) was 30.4 and the “The level of expressed mRNA in the presence of chemical substance/The level of expressed mRNA in the absence of chemical substance” value (yeast gene YGR257C) was 2.0. The “The level of expressed mRNA in the presence of chemical substance/ (in its absence), gene YGR287C” value (yeast gene YGR287C, ratio of DNA chip fluorescence intensity to that without chemical substance) was 1.7, the “The level of expressed mRNA in the presence of chemical substance/ (in its absence), gene YGR288W” value (yeast gene YGR288W, ratio of DNA chip fluorescence intensity to that without chemical substance) was 1.3 and the “The level of expressed mRNA in the presence of chemical substance/ (ratio to absence of chemical substance)” value (yeast gene YHL028W) was 2.1. For the same compound, the “The level of expressed mRNA in the presence of chemical substance/ (ratio to absence of chemical substance)” value (yeast gene YHL046C) was 1.4, the “The level of expressed mRNA in the presence of chemical substance/The level of expressed mRNA in the absence of chemical substance” value (yeast gene YHR004C) was 1.1 and the “The level of expressed mRNA in the presence of chemical substance/The level of expressed mRNA in the absence of chemical substance” value (yeast gene YHR071W) was 2.3. For the same compound, the “The level of expressed mRNA in the presence of chemical substance/The level of expressed mRNA in the absence of chemical substance” value (yeast gene YHR139C) was 7.0, the “The level of expressed mRNA in the presence of chemical substance/The level of expressed mRNA in the absence of chemical substance” value (yeast gene YHR142W) was 1.2 and the “The level of expressed mRNA in the presence of chemical substance/ (in its absence), gene YHR210C” value (yeast gene YHR210C, ratio of DNA chip fluorescence intensity to that without chemical substance) was 0.4. For the same compound, the “The level of expressed mRNA in the presence of chemical substance/ (in its absence), gene YIL006W” value (yeast gene YIL006W, ratio of DNA chip fluorescence intensity to that without chemical substance) was 0.8, the “The level of expressed mRNA in the presence of chemical substance/ (ratio to absence of chemical substance)” value (yeast gene YIL011W) was 0.5 and the “The level of expressed mRNA in the presence of chemical substance/The level of expressed mRNA in the absence of chemical substance” value (yeast gene YIL123W) was 0.4.
